From patent publication US11649245B2, “Cyclopropylamine compound as LSD1 inhibitor and use thereof” (HELIOEAST PHARMACEUTICAL CO., LTD., priority 2018, dated 2023)
Structures can show the parent of a compound that is named as a salt.

System: MV-4-11 cells
Assay: Antiproliferation activity on MV-4-11 cells (CellTiter-Glo, 6 days)
Type: cell-based
Conditions: incubated for 6 days
Description: Experimental purpose: to detect the antiproliferation activity of the compound to be tested on MV-4-11 cells.
Experimental materials: IMDM culture medium, fetal bovine serum, penicillin/streptomycin antibiotics purchased from Wisent. CellTiter-Glo (chemiluminescent cell viability assay reagent) reagents purchased from Promega. MV-4-11 cell line was purchased from Nanjing Cobioer Co., Ltd. Nivo Multi-Marker Analyzer (PerkinElmer).
Experimental method: MV-4-11 cells were planted in a white 96-well plate, 80 μL of cell suspension per well, which contained 6000 MV-4-11 cells. The cell plate was placed in a carbon dioxide incubator for overnight culture.
The compounds to be tested were diluted 5-fold with a pipet until the 8th concentration, i.e., diluted from 2 mM to 25.6 nM, double duplicate well experiment was set. 78 μL of the culture medium was added to an intermediate plate, and then 2 μL per well of the serially diluted compounds were transferred to the corresponding positions on the intermediate plate, after mixing, 20 μL per well was transferred to the cell plate. The cell plate was incubated in a carbon dioxide incubator for 6 days. Another cell plate was prepared and the signal value on the day of dosing was read as the maximum value (Max value in the equation below) to participate in the data analysis. 25 μL of the chemiluminescent cell viability assay reagent was added to each well of this cell plate, which was incubated at room temperature for 10 minutes to stabilize the luminescence signal. The multi-label analyzer was used for reading.
Data analysis: the equation (Sample-Min)/(Max-Min)*100% was used to convert the original data into the inhibition rate, the IC50 value can be obtained by curve fitting of four-parameters (“log(inhibitor) vs. response—Variable slope” mode in GraphPad Prism)).

IC50: 3.21 nM
SMILES: O=C(O)c1ccc(CN2CCC3(CC2)CC(N[C@@H]2C[C@H]2c2ccccc2)CO3)cc1 (stereo partly shown) [Hydrochloride of the compound 6]
